Literature values as cited in patent US20250353873A1, “COMPOUNDS AND METHODS FOR MODULATING APOE EXPRESSION” (Ionis Pharmaceuticals, Inc., priority 2024, published 2025).
e = 2'-O-(2-methoxyethyl) (MOE); k = constrained ethyl (cEt); d = 2'-deoxy (DNA)

Test system: BJAB cells
Conditions: known behaviour in the assay; cited from earlier work

Substance | responder class for CCL22 release in the BJAB assay (internal standard)
Compound No. 735746: 3-10-3 cEt gapmer, TTCAAGGTGAACTGTT, internal standard (sugars from the 5' end k3 d10 k3, backbone and methylation of C not given here) | moderate responder (mildly inflammatory)
Compound No. 785674: kk-9-eeekk cEt gapmer with MOE modifications, TATTTCTGCTCCAGGT, internal standard (sugars from the 5' end k2 d9 e3 k2, backbone and methylation of C not given here) | high responder (inflammatory)
